Test results from patent publication US20210057047A1, “IN-SILICO METHOD FOR DESIGNING A (D)-POLYPEPTIDE LIGAND” (THE GOVERNING COUNCIL OF THE UNIVERSITY OF TORONTO, priority 2018, published 2021).
Square brackets hold non-standard residues; d marks the D form. Ends that are not written are not given here. Peptide text beside a SMILES is read from it.

Tests used:
[1] = in vitro; assay type: in vitro ADME; conditions: isolated enzyme proteinase k, pH 7.4
Description: (§1) Stocks of 20 μM peptide in 200 μL total volume (10 mM Tris-base, 10 mM NaCl, pH 7.4) were supplemented with 5 μM CaCl2) and 30 uL removed for the untreated T0 sample. Proteinase K (ProtK, Bioshop) was then added to a final concentration of 100 μg/mL. Samples were incubated at 37° C. and 30 μL removed after each time point and protease activity blocked by the addition of 10 mM PMSF (200 mM stock dissolved in isopropanol). Protease inactivated samples were frozen at −20° C. until further use. Digestions were repeated three times. Frozen samples were supplemented with 8 μL sample loading buffer (4× NuPAGE, ThermoFisher Scientific), boiled ([…]) for 10 minutes, and centrifuged (12 000 rpm, 10 min) prior to loading the gel (12% NuPAGE Bis-Tris (ThermoFisher Scientific) with MES running buffer). Gels were run at 200 V for […] and stained using Coomassie Brilliant Blue dye. Densitometry of bands was determined using ImageJ software (40) with back ground subtraction. All samples were normalized to their respective untreated sample (T0).

[2] = biological target: T1, Proteinase K (ProtK) (Parengyodontium album, UniProt P06873); assay: in vitro; assay type: in vitro ADME
T1 construct: purchased Bioshop
Description: as §1

[3] = biological target: T2, GLP2R (Homo sapiens, UniProt O95838); assay: CRE-luciferase reporter assay in HEK293 cells stably expressing GLP2R; assay type: cell-based
T2 construct: expressed in transfected cells; host or cells: HEK293
T2 sequence (O95838 1-553): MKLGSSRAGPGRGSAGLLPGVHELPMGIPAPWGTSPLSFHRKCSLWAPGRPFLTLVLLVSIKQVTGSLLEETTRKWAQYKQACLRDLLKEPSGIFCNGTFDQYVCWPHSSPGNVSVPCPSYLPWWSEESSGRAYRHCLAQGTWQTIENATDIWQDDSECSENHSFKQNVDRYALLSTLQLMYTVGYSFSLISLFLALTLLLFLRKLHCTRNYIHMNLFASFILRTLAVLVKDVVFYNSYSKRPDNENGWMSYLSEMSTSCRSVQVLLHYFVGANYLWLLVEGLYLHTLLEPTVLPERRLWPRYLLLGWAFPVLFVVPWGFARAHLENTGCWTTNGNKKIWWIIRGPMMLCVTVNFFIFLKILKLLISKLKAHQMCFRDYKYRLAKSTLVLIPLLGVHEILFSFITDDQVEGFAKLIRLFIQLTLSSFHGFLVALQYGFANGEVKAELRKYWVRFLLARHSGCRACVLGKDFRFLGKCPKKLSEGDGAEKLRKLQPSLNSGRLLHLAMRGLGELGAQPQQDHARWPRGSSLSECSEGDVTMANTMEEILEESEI
Description: This activates protein kinase A (PKA) to phosphorylate and activate cAMP response element-binding protein (CREB). […] All of the (L)-GLP-2 is degraded in about 1 hr, while more than 90% of the (D)-analog is still detectable at 6 hours.
FIG. 14 is a series of charts and experiments showing the activity and protease degradation of (L)- and (D)-GLP2 polypeptides. (A) HEK293 cells stably expressing GLP2R and CRE-luciferase were stimulated with different concentrations of (L)- and (D)-GLP2 peptides. Luciferase activity was measured. The experiments were performed in triplicate. (B) Sample gel images of (L) and (D)-GLP-2 peptides treated with Proteinase K (ProtK) over 5 hours. Gels were stained with Coomassie Brilliant Blue dye and band densitometry calculated using ImageJ (40) with background subtraction. (C) Quantification of remaining peptide post ProtK treatment in 60 min intervals. Intensities of peptide bands were normalized to the intensity of the untreated peptide (T0) and converted to a percentage relative to T0. […] Error bars are reporting standard error. Data represent the average of 3 independent experiments.

[4] = biological target: T3, parathyroid receptor (PTH1R) (Homo sapiens, UniProt Q03431); assay: CRE-luciferase reporter assay in HEK293 cells stably expressing PTH1R; assay type: cell-based
T3 construct: expressed in transfected cells; host or cells: HEK293
T3 sequence (Q03431 27-593): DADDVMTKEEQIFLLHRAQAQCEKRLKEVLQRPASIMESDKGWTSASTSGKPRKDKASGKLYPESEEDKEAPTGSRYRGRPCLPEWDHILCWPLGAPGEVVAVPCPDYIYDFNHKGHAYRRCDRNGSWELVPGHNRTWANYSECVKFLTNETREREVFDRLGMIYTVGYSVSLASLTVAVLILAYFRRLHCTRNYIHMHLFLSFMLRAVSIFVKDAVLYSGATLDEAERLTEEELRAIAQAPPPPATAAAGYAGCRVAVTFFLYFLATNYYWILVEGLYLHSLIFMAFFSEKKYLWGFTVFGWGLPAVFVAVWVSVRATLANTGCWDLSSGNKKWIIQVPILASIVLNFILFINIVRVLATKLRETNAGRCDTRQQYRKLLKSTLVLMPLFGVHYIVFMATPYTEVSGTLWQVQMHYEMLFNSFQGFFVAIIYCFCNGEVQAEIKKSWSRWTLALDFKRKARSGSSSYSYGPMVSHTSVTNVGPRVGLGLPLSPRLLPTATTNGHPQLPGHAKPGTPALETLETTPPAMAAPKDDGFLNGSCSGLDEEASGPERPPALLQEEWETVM
Description: This activates protein kinase A (PKA) to phosphorylate and activate cAMP response element-binding protein (CREB). […] All of the (L)-PTH is degraded in under 1 hr, while more than 85% of the (D)-analog is still detectable at 6 hours.
(a) (L)-PTH structure and sequence with hotspots highlighted in grey and junctions in black. (b) (D)-PDB match structures and sequences. (c) Final (D)-PTH construction from match sequences and RI (d) HEK293 cells stably expressing PTH1R and CRE-luciferase were stimulated with different concentrations of (L)-, (D)-PTH peptides and Forskolin. Luciferase activity was measured. The experiments were performed in triplicate. (e) Sample gel images of (L)- and (D)-PTH peptides treated with Proteinase K (ProtK) over 5 hours. Gels were stained with Coomassie Brilliant Blue dye and band densitometry calculated using ImageJ (40) with background subtraction. (f) Quantification of remaining peptide post ProtK treatment in […] intervals. Intensity of peptide bands were normalized to the intensity of the untreated peptide (T0) and converted to a percentage relative to T0. […] Error bars are reporting standard error. Data represent the average of 3 independent experiments.

[5] = system: pCDNA3.1 HEK293 cells; assay: CRE-luciferase reporter assay in control pCDNA3.1 HEK293 cells; assay type: cell-based; conditions: pCDNA3.1 HEK293 cells without GLP1 receptor
[6] = biological target: GLP1 receptor (GLP1R) (human, UniProt P43220 24-463); assay: cell-based or functional assay

T1 sequence (P06873 106-384): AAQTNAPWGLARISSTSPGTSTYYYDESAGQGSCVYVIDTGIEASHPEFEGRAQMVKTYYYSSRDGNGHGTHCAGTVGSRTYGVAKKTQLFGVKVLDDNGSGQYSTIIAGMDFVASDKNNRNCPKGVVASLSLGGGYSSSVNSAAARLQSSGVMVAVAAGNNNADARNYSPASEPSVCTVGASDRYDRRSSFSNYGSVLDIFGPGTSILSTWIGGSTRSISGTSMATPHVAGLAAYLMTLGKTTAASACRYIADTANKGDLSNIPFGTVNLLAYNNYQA

## CC[C@@H](C)[C@@H](NC(=O)[C@@H](C)NC(=O)[C@@H](C)NC(=O)[C@H](NC(=O)[C@@H](C)NC(=O)[C@@H](Cc1ccccc1)NC(=O)[C@@H](Cc1c[nH]c2ccccc12)NC(=O)[C@@H](Cc1ccccc1)NC(=O)CNC(=O)[C@H](NC(=O)[C@@H](CCCNC(=N)N)NC(=O)[C@@H](CC(=O)O)NC(=O)[C@H](NC(=O)[C@@H](CCCCN)NC(=O)[C@H](NC(=O)[C@H](NC(=O)[C@H](N)CC(=O)O)[C@H](C)O)[C@H](C)CC)[C@H](C)O)[C@H](C)CC)C(C)C)C(=O)N[C@H](CC(C)C)C(=O)N[C@@H](C(=O)N[C@H](CC(C)C)C(=O)N[C@H](CC(C)C)C(=O)N[C@H](CCCCN)C(=O)N[C@H](CCSC)C(=O)N[C@H](CCSC)C(=O)N[C@H](CCC(=O)O)C(=O)N[C@H](CCC(=O)O)C(=O)N[C@H](Cc1ccccc1)C(=O)N[C@@H](C(=O)NCC(=O)N[C@H](CC(=O)O)C(=O)N[C@H](C)C(=O)N[C@H](Cc1c[nH]cn1)C(=O)O)C(C)C)C(C)C [(D)-GLP2] (H-[dD][dT][dI][dK][dT][dD][dR][dI]G[dF][dW][dF][dA][dV][dA][dA][dI][dL][dV][dL][dL][dK][dM][dM][dE][dE][dF][dV]G[dD][dA][dH]-OH; N-terminus and C-terminus assumed)
[1]
  remaining at 6 h, 20 µM: > 90%
[2]
  degradation by ProtK (in words): persists after 5 hours
[3]
  activation of GLP2R, potency and efficacy (in words): potency and efficacy comparable to (L)-GLP-2

## CC[C@@H](C)[C@@H](NC(=O)[C@@H](CCC(=O)O)NC(=O)[C@@H](CCCNC(=N)N)NC(=O)[C@@H](CCSC)NC(=O)[C@@H](CC(C)C)NC(=O)[C@@H](CC(=O)O)NC(=O)CNC(=O)[C@@H](CCCCN)NC(=O)[C@@H](Cc1c[nH]cn1)NC(=O)[C@@H](CC(N)=O)NC(=O)[C@@H](CCCNC(=N)N)NC(=O)[C@@H](Cc1c[nH]c2ccccc12)NC(=O)[C@@H](CCC(=O)O)NC(=O)[C@H]1CCCN1C(=O)[C@@H](CC(C)C)NC(=O)[C@@H](Cc1ccc(O)cc1)NC(=O)[C@@H](CCSC)NC(=O)[C@@H](CC(C)C)NC(=O)[C@@H](CC(C)C)NC(=O)[C@@H](CCSC)NC(=O)CNC(=O)[C@H](NC(=O)[C@@H](CO)NC(=O)[C@@H](CC(=O)O)NC(=O)[C@@H](C)NC(=O)[C@H](NC(=O)[C@@H](C)NC(=O)[C@@H](CC(C)C)NC(=O)CNC(=O)[C@@H](C)N)C(C)C)C(C)C)C(=O)N[C@H](CCCNC(=N)N)C(=O)N[C@H](CO)C(=O)N[C@H](CCCNC(=N)N)C(=O)N[C@H](CCCCN)C(=O)N[C@@H](C(=O)N[C@H](CO)C(=O)O)C(C)C [(D)-PTH] (H-[dA]G[dL][dA][dV][dA][dD][dS][dV]G[dM][dL][dL][dM][dY][dL][dP][dE][dW][dR][dN][dH][dK]G[dD][dL][dM][dR][dE][dI][dR][dS][dR][dK][dV][dS]-OH; N-terminus and C-terminus assumed)
[2]
  degradation by ProtK (in words): persists after 5 hours
[4]
  activation of PTH1R, potency and efficacy (in words): potency and efficacy comparable to (L)-PTH and Forskolin

## CC[C@H](C)[C@H](NC(=O)[C@H](Cc1ccccc1)NC(=O)[C@H](CCC(=O)O)NC(=O)[C@H](CCCCN)NC(=O)[C@H](C)NC(=O)[C@H](C)NC(=O)[C@H](CCC(N)=O)NC(=O)CNC(=O)[C@H](CCC(=O)O)NC(=O)[C@H](CC(C)C)NC(=O)[C@H](Cc1ccc(O)cc1)NC(=O)[C@H](CO)NC(=O)[C@H](CO)NC(=O)[C@@H](NC(=O)[C@H](CC(=O)O)NC(=O)[C@H](CO)NC(=O)[C@@H](NC(=O)[C@H](Cc1ccccc1)NC(=O)[C@@H](NC(=O)CNC(=O)[C@H](CCC(=O)O)NC(=O)[C@H](C)NC(=O)[C@@H](N)Cc1c[nH]cn1)[C@@H](C)O)[C@@H](C)O)C(C)C)C(=O)N[C@@H](C)C(=O)N[C@@H](Cc1c[nH]c2ccccc12)C(=O)N[C@@H](CC(C)C)C(=O)N[C@H](C(=O)N[C@@H](CCCCN)C(=O)NCC(=O)N[C@@H](CCCNC(=N)N)C(=O)O)C(C)C [(L)-GLP1]
[5]
  luciferase expression (in words): inactive

## [dR]G[dK][dA][dF][dL][dE][dL][dF][dI][dL][dA][dA]G[dE][dL][dI][dE][dA][dI][dD][dR][dT][dF][dT]G[dE][dA][dH] (designed binder) [(D)-GLP1 peptide]
[6]
  EC50, CRE-luciferase expression: 2200 nM
  potency relative to the native peptide: ~40 fold lower
